Some test systems named below: OVCAR-4; RXF 393; IGROV-1; KM12; MOLT-4; SK-MEL-5; SF-539; NCI-H23; HOP-92; CAKI-1; UACC-62; SK-MEL-28; A549; EKVX; NCI/ADR-RES; SNB-75; M14; HCT-15; HCT-116; HL-60.
Common to all, as to assay: NCI tumour cell line growth inhibition, 48 h

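Cells were grown in 96-well plates and exposed to each compound for 48 hours at five concentrations; endpoints were interpolated linearly between bracketing concentrations, or set to the highest concentration if not reached. Here, GI50 denotes the concentration required for 50% inhibition of growth.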 Calls of active or inactive are those of the source. No stated cut-off is given here; in the data, active = GI50 up to about 1.1 µM and inactive = higher.

As to `CN(C)c1ccc(/C=C2\C[C@H]3[C@@H]4CCc5cc(O)ccc5[C@H]4CC[C@]3(C)C2=O)cc1`, the GI50 in the assay with OVCAR-4 is > 100 µM (inactive); in the assay on RXF 393, 48.5 µM (inactive); in the assay with IGROV-1, 48 µM (inactive); with KM12 it was > 100 µM (inactive); with MOLT-4 it was > 100 µM (inactive); with SK-MEL-5 it was > 100 µM (inactive). Also, the GI50 in the assay on SF-539 is 23.4 µM (inactive); in the assay with NCI-H23, > 100 µM (inactive); in the assay with HOP-92 it was 61.5 µM (inactive); with CAKI-1 it was > 100 µM (inactive); in the assay with UACC-62, 17.1 µM (inactive); in the assay with SK-MEL-28, > 100 µM (inactive). Also, the GI50 in the assay with A549 is > 100 µM (inactive); in the assay with EKVX it was 32.5 µM (inactive); with NCI/ADR-RES, > 100 µM (inactive); in the assay with SNB-75 it was 28.9 µM (inactive); in the assay on M14, > 100 µM (inactive); in the assay with HCT-15, > 100 µM.

For `NNc1nc2ccccc2s1`, the GI50 is > 100 µM (inactive) in the assay on OVCAR-4; > 100 µM (inactive) with RXF 393; > 100 µM (inactive) with IGROV-1; > 100 µM (inactive) with KM12; 37.3 µM (inactive) with MOLT-4; > 100 µM (inactive) in the assay with SK-MEL-5. For the same compound, the GI50 with HCT-116, with SF-539, in the assay on NCI-H23, with HOP-92, with CAKI-1 and in the assay on UACC-62 was > 100 µM (inactive) in each case. Further, the GI50 in the assay with SK-MEL-28, in the assay with A549, with EKVX, in the assay on HL-60, with NCI/ADR-RES and in the assay with SNB-75 was > 100 µM (inactive) each time. The GI50 was > 100 µM (inactive) in the assay on M14 and > 100 µM in the assay on HCT-15.

As to `C1CCC(OC2CSC2)OC1` (configuration not stated), the GI50 with OVCAR-4, in the assay with RXF 393, in the assay on KM12, in the assay on MOLT-4, with SK-MEL-5 and with HCT-116 was > 100 µM (inactive) each time. Moreover, the GI50 in the assay on NCI-H23, with HOP-92, with SK-MEL-28, in the assay on A549, in the assay on NCI/ADR-RES and in the assay on SNB-75 was > 100 µM (inactive) in each case. Also, the GI50 was > 100 µM (inactive) with M14 and > 100 µM in the assay with HCT-15.

Turning to `CC1CC(Br)C(=O)O1` (configuration not stated), the GI50 with OVCAR-4, in the assay on RXF 393, with IGROV-1, with KM12, in the assay with MOLT-4 and in the assay on SK-MEL-5 was > 100 µM (inactive) each time. Further, the GI50 with HCT-116, in the assay with SF-539, with NCI-H23, in the assay with HOP-92, in the assay with CAKI-1 and with UACC-62 was > 100 µM (inactive) in each case. Moreover, the GI50 in the assay with SK-MEL-28 was > 100 µM (inactive); in the assay on A549 it was > 100 µM (inactive); in the assay on EKVX it was > 100 µM (inactive); with HL-60, > 100 µM (inactive); in the assay with NCI/ADR-RES it was > 100 µM (inactive); in the assay with SNB-75, 70 µM (inactive). Moreover, the GI50 in the assay on M14 was > 100 µM (inactive); in the assay with HCT-15 it was > 100 µM.

For `CCc1cc(=O)n(/C(C)=C/c2ccccc2)n1C`, the GI50 in the assay on OVCAR-4, in the assay on RXF 393, in the assay on IGROV-1, in the assay with KM12, in the assay on MOLT-4 and in the assay with SK-MEL-5 was > 100 µM (inactive) throughout. The GI50 in the assay with HCT-116, with SF-539, in the assay on NCI-H23, in the assay with HOP-92, in the assay with CAKI-1 and in the assay with UACC-62 was > 100 µM (inactive) throughout. Besides, the GI50 in the assay on SK-MEL-28, in the assay with A549, in the assay with EKVX, in the assay with NCI/ADR-RES, in the assay on SNB-75 and with M14 was > 100 µM (inactive) each time.

For the compound `CCOC(=O)C(C)N1C(=O)c2ccccc2S1(=O)=O` (configuration not stated), the GI50 in the assay with OVCAR-4, in the assay on IGROV-1, in the assay with KM12, in the assay on MOLT-4, in the assay on SK-MEL-5 and in the assay on HCT-116 was > 100 µM (inactive) throughout. In addition, the GI50 in the assay on SF-539, in the assay with NCI-H23, with HOP-92, in the assay on CAKI-1, with UACC-62 and in the assay on SK-MEL-28 was > 100 µM (inactive) throughout. Further, the GI50 was > 100 µM (inactive) with A549; > 100 µM (inactive) in the assay on EKVX; > 100 µM (inactive) in the assay with HL-60; > 100 µM (inactive) with NCI/ADR-RES; > 100 µM (inactive) with SNB-75; > 100 µM in the assay on HCT-15.

Consider `Cc1c2cnccc2c(C)c2c1c1ccccc1n2CCCCCCCl`, for which the GI50 was > 10.5 µM (inactive) in the assay on OVCAR-4; > 50 µM (inactive) in the assay on RXF 393; > 45.7 µM (inactive) with IGROV-1; 29.9 µM (inactive) in the assay with KM12; 19.9 µM (inactive) with MOLT-4; > 50 µM (inactive) in the assay on SK-MEL-5. The GI50 in the assay on HCT-116 is 23.6 µM (inactive); in the assay with SF-539 it was > 50 µM (inactive); in the assay on NCI-H23, 38.6 µM (inactive); in the assay with HOP-92, > 50 µM (inactive); with CAKI-1, > 50 µM (inactive); with UACC-62, > 50 µM (inactive). The GI50 in the assay on SK-MEL-28 was > 48.4 µM (inactive); in the assay on A549, > 48.2 µM (inactive); in the assay on EKVX it was > 50 µM (inactive); with HL-60, 10.1 µM (inactive); with NCI/ADR-RES, > 46.3 µM (inactive); with SNB-75, > 31.6 µM (inactive). Also, the GI50 with HCT-15 is > 50 µM.

With `C#CC(C)(C)Oc1cc(OC)c2c(=O)c3ccccc3n(C)c2c1`, the GI50 with OVCAR-4 is 7.8 µM (inactive); in the assay with RXF 393 it was 25.2 µM (inactive); in the assay with IGROV-1, 0.0238 µM (active); with KM12, 10.9 µM (inactive); in the assay on MOLT-4 it was 3.85 µM (inactive); with SK-MEL-5, 11.1 µM (inactive). In addition, the GI50 in the assay with HCT-116 is 17.4 µM (inactive); in the assay on SF-539, 26.1 µM (inactive); in the assay on UACC-62, 7.59 µM (inactive); in the assay on SK-MEL-28 it was 16.2 µM (inactive); in the assay on A549, 9.86 µM (inactive); in the assay on EKVX it was 20.9 µM (inactive). The GI50 in the assay on HL-60 was 10.9 µM (inactive); in the assay with NCI/ADR-RES it was 13.8 µM (inactive); with SNB-75, 24.8 µM (inactive); in the assay with HCT-15, 10.9 µM.

Take `CN(C)C(=O)OC1C(=O)N(C)c2ccc(Cl)cc2C2(c3ccccc3)N1C2(Cl)Cl` (configuration not stated): the GI50 in the assay on OVCAR-4 is > 100 µM (inactive); with RXF 393, 69.2 µM (inactive); with IGROV-1, > 100 µM (inactive); in the assay on KM12, 62.1 µM (inactive); in the assay with MOLT-4, 47.9 µM (inactive); in the assay on SK-MEL-5, 40.3 µM (inactive). Moreover, the GI50 with HCT-116 was 62.7 µM (inactive); in the assay on NCI-H23, 47.8 µM (inactive); in the assay on HOP-92 it was 18.7 µM (inactive); with CAKI-1 it was > 100 µM (inactive); in the assay with UACC-62, 64.7 µM (inactive); in the assay with SK-MEL-28, > 100 µM (inactive). Further, the GI50 with EKVX is 44.4 µM (inactive); in the assay with HL-60, 29.4 µM (inactive); in the assay on SNB-75, 69.3 µM (inactive); in the assay with M14, > 100 µM (inactive); with HCT-15 it was 60.4 µM.

With `CCNc1nnc(-c2nsc3ccccc23)s1`, the GI50 is 86.5 µM (inactive) in the assay on OVCAR-4; 32.8 µM (inactive) with RXF 393; > 100 µM (inactive) with IGROV-1; 59.7 µM (inactive) with KM12; > 100 µM (inactive) in the assay with MOLT-4; > 100 µM (inactive) in the assay with SK-MEL-5. In addition, the GI50 in the assay with HCT-116 is 24.7 µM (inactive); in the assay on SF-539 it was 56.2 µM (inactive); in the assay with NCI-H23 it was 45.5 µM (inactive); with HOP-92, > 100 µM (inactive); in the assay with UACC-62, > 100 µM (inactive); in the assay on SK-MEL-28, 88.3 µM (inactive). In addition, the GI50 in the assay with A549 was > 100 µM (inactive); in the assay on EKVX, 51.9 µM (inactive); in the assay on HL-60, > 100 µM (inactive); in the assay on SNB-75, 8.83 µM (inactive); in the assay with M14, > 100 µM (inactive); with HCT-15, > 100 µM.

As to `CCCCCCCC/C=C\CCCCCCCCCCCC(=O)O` [ERUCIC ACID], the GI50 in the assay with OVCAR-4 was 30.8 µM (inactive); in the assay on RXF 393, 8.02 µM (inactive); in the assay on IGROV-1 it was 55.1 µM (inactive); in the assay on KM12, 22.3 µM (inactive); in the assay with MOLT-4 it was 37.3 µM (inactive); in the assay on SK-MEL-5, 18.8 µM (inactive). Also, the GI50 in the assay with HCT-116 is 22.3 µM (inactive); in the assay on SF-539, 16.8 µM (inactive); with NCI-H23 it was 25.5 µM (inactive); in the assay with HOP-92 it was 38.9 µM (inactive); with CAKI-1 it was 42 µM (inactive); in the assay with UACC-62, 27.5 µM (inactive). The GI50 is 32.7 µM (inactive) in the assay on SK-MEL-28; 38.5 µM (inactive) in the assay on A549; 34 µM (inactive) in the assay on EKVX; 19.3 µM (inactive) in the assay on HL-60; 86.3 µM (inactive) in the assay on NCI/ADR-RES; 37 µM (inactive) in the assay with SNB-75. The same compound came in with a GI50 in the assay on HCT-15 of 43.7 µM.

The values above are taken from ChEMBL document CHEMBL1201862, “PubChem BioAssay data set” (2004).
